The values that follow come from US10221153B2, “Dibenzothiophene compounds” (Saint Louis University, priority 2017, dated 2019).

The nature of data set [1]: Quantum yield by single-point method. As to conditions: single-point method in EtOH.
The nature of data set [2]: Photophysical analysis: absorption, excitation and emission at 10 μM (Example 5). Type of data set: physicochemical. As to conditions: for λabs / λem / Stokes Shift: acetonitrile at 10 μM; for λex (excitation wavelength): acetonitrile at 10 μM (footnotes a,b); for Stokes Shift: calculated from excitation wavelength; for λex: footnotes a,g: acetonitrile at 10 μM / EtOH at 10 μM. On the procedure: (§1) All data were collected on a SHIMAZDU Spectrofluorometer RF-5301PC. Solutions of the respective compounds were prepared in acetonitrile at approximately 1 mM concentration. Solutions (4 mL) were added to a freshly washed quartz cuvette for measurements. The excitation wavelength was varied between 270 nm and 390 nm in 20 nm intervals until the greatest intensity emission was detected. The emission spectra ranges started at 20 nm to the red of the chosen excitation wavelength up to 780 nm. Scan speed was set at “Very Fast” with both the slit widths set to 1.5 mm.
(§2) All data were collected on a SHIMAZDU Spectrofluorometer RF-5301PC. Solutions of the respective compounds were prepared in acetonitrile at approximately 1 mM concentration. Solutions (4 mL) were added to a freshly washed quartz cuvette for measurements. The monitored emission wavelength was set using the high intensity emission from the respective molecule. The scanning range was from 220 nm through 770 nm. Scan speed was set at “Very Fast” with both the slit widths set to 1.5 mm.
Excitation/emission data for compounds 6b, 7b, 8b, 15b, 16b, and 17b were collected using the methods described in Example 3 but using a lower concentration of acetonitrile (10 μM). Compounds 15b, 16b and 17b and their parent molecules (6b, 7b and 8b) all luminesce in the visible range and their optical properties are described in Table 4. […] The wavelength of λex for the excitation scan corresponds to excitation to S1, which leads to emission. This λex for all the molecules were red shifted, or shifted to the direction of longer wavelengths, from the peak absorption by an average 40 nm.

The test system of another data set is HeLa cells. In words: Anti-proliferation (MTS) assay, HeLa cells, 72 hours. It counts as cell-based, human. As to conditions: 1 nM to 100 μM. On the procedure: To determine whether long-term exposure to each compound could be toxic to cells, Hela cells were treated with varying concentrations of Compounds 16b, 15b and 17b for 72 hours. An anti-proliferation protocol was carried out by testing chosen compounds on the growth of the human cervical cancer cell lines. HeLa cells were cultured in their respective media supplemented with 10.0% FBS (fetal bovine serum) and 1.0% Pen/Strep. Cells (1,000 cells/100 μL per well) were plated in a 96-well culture plate (TC treated, Greiner) and incubated for 24 h. 50 μL (DMSO <1%) of the compound at final concentrations 100 μM, 10 μM, 1 μM, 100 nM, 10 nM, and 1 nM were added to the appropriate wells. Triplicates wells were performed for each compound, on three identical plates.
After incubation of the cells, at 37° C. in a humidified atmosphere of 5% CO2 for 72 hours, the cells were stained and incubated with MTS (3-(4,5-dimethylthiazol-2-yl)-5-(3-carboxymethoxyphenyl)-2-(4-sulfophenyl)-2H-tetrazolium) reagent in the presence of PMS (phenazine methosulfate) reagent for 2 hours to determine cell viability. An MTS assay is based on the reduction of the MTS tetrazolium compound by viable cells to generate a colored formazan dye that is soluble in cell culture media. The absorbance of each well was taken at 490 nm using a multimode plate reader (FlexStation 3, Molecular Devices, San Diego, Calif.). GraphPad Prism was used to analyze transposed data to determine the percent viability. […] Each compound was tested in at least triplicate.

Data set [3] relates to HeLa human cervical carcinoma cell line. In words: Cell imaging of HeLa cells incubated with compound, fluorescence microscopy. It counts as cell-based. As to conditions: 1 μM; for luminescence intensity in cells: excitation 350 nm, emission approximately 400 nm; for location of luminescence in the cell: merged bright field and UV images. On the procedure: HeLa human cervical carcinoma cell line was obtained from ATCC (Manassas, Va.). The cells were cultured in a humidified incubator at 5% CO2 and 37° C. The cell line was grown in D-MEM (Invitrogen) high glucose supplemented with 10.0% fetal bovine serum (Invitrogen, Carlsbad, Calif.) and 1.0% Penicillin/Streptomycin (Invitrogen, Carlsbad, Calif.) for an environment suitable for cell growth. The culture was sub-cultured every three days to maintain normal cell growth.
Sterile glass PDL coated #1.5 cover slips (NeuVitro), pre-incubated with culture medium, were placed in sterile 6-well plates. Single cell suspension of the HeLa (cervical cancer cells taken from patient Henrietta Lacks) cell line was prepared at 5×10^4 cells ml^−1 in the appropriate medium. Volumes of 2.0 mL were pipetted into each of the wells containing the coverslips. The 6-well plate was left overnight at 37.0° C. in a 5.0% CO2 incubator. Following the overnight incubation, the plate was aspirated dry and then fresh culture medium, containing the drug (at 1.0 μM and 0.10% DMSO) in a volume of 2.0 mL, was gently pipetted onto the cell monolayers attached to the glass cover slips. Cells on the cover slips were exposed to the drug for approximately 2 hours. Cells were washed with PBS and treated with 4.0% paraformaldehyde solution prepared in PBS, incubated for 30 minutes at room temperature for […]. Several washes with PBS were completed to ensure excess solution was rinsed away. Glass cover slips were removed and mounted on slides with ProLong Gold Antifade Mountant (ThermoFisher Scientific). The specimen was dried for several minutes and sealed with clear nail polish before visualized under a microscope
Cell Image Captures: All images were captured with a Leica DM 4000 B microscope with a DFC3000G camera (Leica Microsystems, Germany) and 63× oil immersion lens. HeLa cells were staged according to the method above. Leica LASX Core Software (Leica Microsystems, Germany) was used to acquire the images.
Stained cells were clearly observed by exciting the cells with a broadly emitting lamp using DAPI filter set. Luminescence was observed within the cell bodies of the HeLa cells upon excitation of the UV wavelengths. The excitation wavelength was 350 nm and the emission wavelength was approximately 400 nm. FIG. 14 depicts representative images of HeLa cervical cancer cell lines incubated with Compounds 16b, 15b, and 17b (1 μM) for 120 min. Bright field images of cells incubated with compounds 16b, 15b, and 17b are shown in Panels A, D, and G, respectively. Luminescence from each compound (16b, 15b, and 17b) is shown in Panels B, E, and H, respectively, with UV laser radiation.

Data set [4] in a line: Photophysical analysis: absorption, excitation and emission at 10 μM (Example 5). It counts as physicochemical. The following applies: EtOH at 10 μM.
Data set [5] can be described thus: Emission and excitation scans on spectrofluorometer, approximately 1 mM in acetonitrile (Example 3). Type of data set: physicochemical. On the procedure:
General Procedure for Emission and Excitation Data Collection:
as §1, §2

The mark [6] stands for this setting: cell footnote a: acetonitrile at 10 μM.

Entries after “also recorded” stand apart in the source; their conditions may differ. Like-named read-outs stand apart in the source and are kept apart here.

As to `O=S(=O)([O-])c1ccc2c(c1)-c1cc(-c3cccc4ccccc34)ccc1S2(=O)=O.[Na+]` [Compound 17b, sodium 8-(naphthalen-1-yl)dibenzo[b,d]thiophene-2-sulfonate 5,5-dioxide], the “φ (quantum yield)” value in data set [1] is 0.55. In addition, in data set [2], the “log εex (molar extinction coefficient at excitation wavelength)” value (from here on “log εex”) worked out at 4.36 M^−1 cm^−1, the λabs was determined as 250 nm, the λem stood at 421 nm and the “λex (excitation wavelength)” value turned out to be 274 nm. For the same compound, in data set [2], the “Stokes Shift” value is 147 nm and the λex turned out to be 274 nm. Besides, the “cytotoxicity / decrease in cell viability” value in the data set with HeLa cells is recorded as “do not show any decrease in cell viability at any concentration tested; also recorded: no observed cytotoxicity”. For the same compound, in data set [3] (120 min), the “luminescence intensity in cells” value was “slight luminescence” and the “location of luminescence in the cell” value was “luminescence is clearly identified within the nucleus of the cell”. Also, the “effect on cell morphology” value in data set [3] (FIG. 14 panel G) was “seemed to influence the morphology of HeLa cells”. Also, in data set [4], the “log εmax (maximum molar extinction coefficient)” value (from here on “log εmax”) came out at 4.67 M^−1 cm^−1 and the λem was determined as 428 nm.
Turning to `O=S(=O)(Oc1ccccc1)c1ccc2c(c1)c1cc(-c3cccc4ccccc34)ccc1[s+]2[O-]` (stereo not drawn) [Compound 7a, phenyl 8-(naphthalen-1-yl)dibenzo[b,d]thiophene-2-sulfonate 5-oxide], the luminescence colour entry in data set [5] is recorded as “luminesced in either a deep blue or near blue wavelength”.
On to `O=S(=O)(Oc1ccccc1)c1ccc2c(c1)-c1cc(-c3ccc(-c4ccccc4)cc3)ccc1S2(=O)=O` [Compound 8b, phenyl 8-([1,1′-biphenyl]-4-yl)dibenzo[b,d]thiophene-2-sulfonate 5,5-dioxide], for which the “φ (quantum yield)” value in data set [1] worked out at 0.59. Besides, in data set [2], the “log εex” value was found to be 4.17 M^−1 cm^−1, the λabs turned out to be 243 nm, the λem is on record as 485 nm and the “λex (excitation wavelength)” value was 283 nm. In data set [2], the “Stokes Shift” value is 202 nm and the λex was found to be 286 nm. Moreover, in data set [4], the “log εmax” value came to 4.59 M^−1 cm^−1 and the λem is 478 nm. In addition, in data set [5], the “emission wavelength (emitted at)” value worked out at 475 nm, the “excitation wavelength (excited at)” value stood at 366 nm and the luminescence colour entry was “luminesced in either a deep blue or near blue wavelength”.
Take `O=S(=O)([O-])c1ccc2c(c1)-c1cc(-c3ccc(-c4ccccc4)cc3)ccc1S2(=O)=O.[Na+]` [Compound 16b, sodium 8-([1,1′-biphenyl]-4-yl)dibenzo[b,d]thiophene-2-sulfonate 5,5-dioxide]: the “φ (quantum yield)” value in data set [1] was 0.29. In addition, in data set [2], the λabs was 246 nm, the λem is reported as 412 nm, the “λex (excitation wavelength)” value was 287 nm and the “Stokes Shift” value is listed as 125 nm. This compound registered a λex in data set [2] of 284 nm. Moreover, in data set [2] (setting [6]), the “log εex” value is recorded as 2.48^a M^−1 cm^−1 and the “log εmax” value was 4.75^a M^−1 cm^−1. For the same compound, the “cytotoxicity / decrease in cell viability” value with HeLa cells is given as “begins to show some degree of toxicity at 100 μM; also recorded: low cytotoxicity”. Further, in data set [3] (120 min), the “tracking with chromosomes during mitosis” value is listed as “track with chromosomes during mitosis”, the “luminescence intensity in cells” value is on record as “intense luminescence” and the “location of luminescence in the cell” value was “luminescence is clearly identified within the nucleus of the cell”. This compound also registered a λem in data set [4] of 422 nm.
As for `O=S(=O)(Oc1ccccc1)c1ccc2c(c1)-c1cc(-c3cccc4ccccc34)ccc1S2(=O)=O` [Compound 7b, phenyl 8-(naphthalen-1-yl)dibenzo[b,d]thiophene-2-sulfonate 5,5-dioxide], the “φ (quantum yield)” value in data set [1] is listed as 0.15. In data set [2], the “log εex” value is on record as 4.51 M^−1 cm^−1, the λabs is given as 243 nm, the λem was found to be 492 nm and the “λex (excitation wavelength)” value is listed as 274 nm. In data set [2], the “Stokes Shift” value is on record as 218 nm and the λex is 274 nm. In data set [4], the “log εmax” value is given as 4.79 M^−1 cm^−1 and the λem was determined as 486 nm. Besides, in data set [5], the “emission wavelength (emitted at)” value was 499 nm, the “excitation wavelength (excited at)” value is given as 367 nm and the luminescence colour entry is given as “luminesced in either a deep blue or near blue wavelength”.
As for `O=S(=O)(Oc1ccccc1)c1ccc2c(c1)-c1cc(-c3ccccc3)ccc1S2(=O)=O` [Compound 6b, phenyl 8-phenyldibenzo[b,d]thiophene-2-sulfonate 5,5-dioxide], the “φ (quantum yield)” value in data set [1] was 0.05. Also, in data set [2], the “log εex” value was found to be 4.45 M^−1 cm^−1, the λabs was found to be 238 nm, the λem was found to be 426 nm and the “λex (excitation wavelength)” value is recorded as 274 nm. Moreover, in data set [2], the “Stokes Shift” value was 152 nm and the λex was determined as 275 nm. Besides, in data set [4], the “log εmax” value was determined as 4.69 M^−1 cm^−1 and the λem was determined as 434 nm. In data set [5], the “emission wavelength (emitted at)” value was “about 437 nm”, the “excitation wavelength (excited at)” value came to 344 nm and the luminescence colour entry is given as “luminesced in either a deep blue or near blue wavelength”.
As to `O=S(=O)(Oc1ccccc1)c1ccc2c(c1)c1cc(-c3ccc(-c4ccccc4)cc3)ccc1[s+]2[O-]` (stereo not drawn) [Compound 8a, phenyl 8-([1,1′-biphenyl]-4-yl)dibenzo[b,d]thiophene-2-sulfonate 5-oxide], in data set [5], the “emission wavelength (emitted at)” value came to 477 nm, the “excitation wavelength (excited at)” value stood at 365 nm and the luminescence colour result is reported as “luminesced in either a deep blue or near blue wavelength”.
